Source: ChEMBL document CHEMBL1201862, “PubChem BioAssay data set” (2004)
Activity calls are given as the source filed them.

What was measured:
[1] = molecular target: Envelope glycoprotein gp160 (Human immunodeficiency virus 1, UniProt Q6QLK5); assay: cell-free HIV fusion peptide-binding blockers – biochemical, uHTS, fluorescence dequenching, […] (AID 1986)
[2] = CCR5-tropic HIV-1 fusion blockers – cell-based, CCR5-tropic Env, dose response (AID 2279); type: functional
[3] = molecular target: T1, Probable nicotinate-nucleotide adenylyltransferase (Staphylococcus aureus (strain N315), UniProt P65502); type: functional, Staphylococcus aureus subsp. aureus N315;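 for IC50 Mean: confirmatory dose-response retesting of NadD inhibitor hits first found in an ultra-high-throughput screen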
T1 sequence (P65502 whole entry): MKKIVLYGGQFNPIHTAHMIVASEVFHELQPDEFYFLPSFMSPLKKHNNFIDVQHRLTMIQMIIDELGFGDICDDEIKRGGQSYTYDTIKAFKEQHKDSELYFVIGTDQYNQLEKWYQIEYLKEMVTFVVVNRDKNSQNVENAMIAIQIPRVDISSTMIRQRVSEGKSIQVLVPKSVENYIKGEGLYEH

[4] = molecular target: T1, Probable nicotinate-nucleotide adenylyltransferase; type: functional, Staphylococcus aureus subsp. aureus N315; details: read-out: IC50_Mean
ELAV-like protein 1 = ELAV-like protein 1 (Homo sapiens, UniProt Q15717); assay: Identify HuR specific inhibitors.; type: functional
Sequence of ELAV-like protein 1 (Q15717 whole entry): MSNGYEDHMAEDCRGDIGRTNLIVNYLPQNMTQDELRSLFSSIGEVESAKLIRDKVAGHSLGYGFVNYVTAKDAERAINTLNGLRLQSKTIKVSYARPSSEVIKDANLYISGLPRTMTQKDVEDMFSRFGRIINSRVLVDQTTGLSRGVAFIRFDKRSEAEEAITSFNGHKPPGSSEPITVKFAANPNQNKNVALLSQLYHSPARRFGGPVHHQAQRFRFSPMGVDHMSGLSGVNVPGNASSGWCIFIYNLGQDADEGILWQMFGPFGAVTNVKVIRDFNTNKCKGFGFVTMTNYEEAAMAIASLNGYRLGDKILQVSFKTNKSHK

[5] = system: Streptococcus sp. 'group A'; assay: Streptococcus pyogenes SK(-)GAS viability under kanamycin – luminescence, BacTiterGlo, confirmation, counter-screen for streptokinase expression inhibitor project, dose response (AID 1900); type: functional, organism-based
[6] = molecular target: Luciferin 4-monooxygenase (Photinus pyralis, UniProt P08659); assay: Counter Screen for Luciferase-based Assay Positives. [Related pubchem assays: 620, 618, 411 ]
Sequence of Luciferin 4-monooxygenase (P08659 whole entry): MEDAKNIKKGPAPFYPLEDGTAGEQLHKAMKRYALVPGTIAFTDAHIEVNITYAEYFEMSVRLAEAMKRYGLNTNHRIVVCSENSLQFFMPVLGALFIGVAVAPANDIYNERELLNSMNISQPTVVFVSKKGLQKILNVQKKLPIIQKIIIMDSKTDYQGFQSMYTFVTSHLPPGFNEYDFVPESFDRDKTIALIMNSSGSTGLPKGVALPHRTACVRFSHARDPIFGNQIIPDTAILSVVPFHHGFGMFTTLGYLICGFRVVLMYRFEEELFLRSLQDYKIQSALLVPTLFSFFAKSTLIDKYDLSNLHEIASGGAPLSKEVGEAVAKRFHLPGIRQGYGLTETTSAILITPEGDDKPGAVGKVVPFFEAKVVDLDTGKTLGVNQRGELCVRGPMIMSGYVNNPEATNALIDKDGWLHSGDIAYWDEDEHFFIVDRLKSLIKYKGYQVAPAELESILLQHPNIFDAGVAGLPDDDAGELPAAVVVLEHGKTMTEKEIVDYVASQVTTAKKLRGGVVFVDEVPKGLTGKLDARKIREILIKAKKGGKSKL

[7] = molecular target: Glyceraldehyde-3-phosphate dehydrogenase (Homo sapiens, UniProt P04406)
Sequence of Glyceraldehyde-3-phosphate dehydrogenase (P04406 whole entry): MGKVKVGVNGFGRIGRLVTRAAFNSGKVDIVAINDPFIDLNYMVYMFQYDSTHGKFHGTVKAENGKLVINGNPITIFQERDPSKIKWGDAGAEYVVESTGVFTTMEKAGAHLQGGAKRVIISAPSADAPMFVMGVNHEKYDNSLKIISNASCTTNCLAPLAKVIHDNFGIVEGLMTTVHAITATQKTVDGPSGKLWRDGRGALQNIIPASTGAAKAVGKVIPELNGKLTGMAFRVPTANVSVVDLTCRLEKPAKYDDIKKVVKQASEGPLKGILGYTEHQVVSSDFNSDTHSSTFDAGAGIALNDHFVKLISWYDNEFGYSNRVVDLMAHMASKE

Streptokinase A = molecular target: T2, Streptokinase A (Streptococcus pyogenes serotype M1, UniProt P10520); assay: viability-normalized secreted streptokinase activity reduction – plasminogen activation absorbance, OD405, dose response (AID 1914); type: functional, Streptococcus pyogenes M1 GAS;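 note: secreted streptokinase activity via plasminogen activation per viability signal from cell pellet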
T2 sequence (P10520 whole entry): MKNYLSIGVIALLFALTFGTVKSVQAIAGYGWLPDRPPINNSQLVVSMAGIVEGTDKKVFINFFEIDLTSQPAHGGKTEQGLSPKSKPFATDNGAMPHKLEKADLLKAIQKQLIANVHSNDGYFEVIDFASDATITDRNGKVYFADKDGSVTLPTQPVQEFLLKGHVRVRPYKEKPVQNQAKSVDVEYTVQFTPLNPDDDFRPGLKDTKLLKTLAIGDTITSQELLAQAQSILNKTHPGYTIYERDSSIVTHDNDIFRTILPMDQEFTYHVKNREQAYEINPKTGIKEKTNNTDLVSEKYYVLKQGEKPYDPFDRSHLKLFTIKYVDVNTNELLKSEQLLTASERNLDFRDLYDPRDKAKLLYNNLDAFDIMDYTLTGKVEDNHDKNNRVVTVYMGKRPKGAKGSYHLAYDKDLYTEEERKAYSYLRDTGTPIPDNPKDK

[8] = microbe, parasite or virus in culture; type: functional; details: Mycobacterium tuberculosis
HT-1080 = assay: HT1080 cell viability loss – fluorescence readout (AID 620); type: functional, cell-based; details: Homo sapiens
Streptococcus = assay: GAS UMAA2166 growth inhibition – luminescence, BacTiterGlo, counter-screen for streptokinase expression inhibitor project, dose response (AID 1915); type: functional, organism-based;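 note: potency for reduction of bacterial viability or growth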
[9] = molecular target: G-protein coupled receptor 55 (Homo sapiens, UniProt Q9Y2T6); assay: selective activators of receptor GPR55 – imaging, U2OS cells, beta-arrestin-GFP redistribution, primary screen (AID 1961); type: functional
Sequence of G-protein coupled receptor 55 (Q9Y2T6 whole entry): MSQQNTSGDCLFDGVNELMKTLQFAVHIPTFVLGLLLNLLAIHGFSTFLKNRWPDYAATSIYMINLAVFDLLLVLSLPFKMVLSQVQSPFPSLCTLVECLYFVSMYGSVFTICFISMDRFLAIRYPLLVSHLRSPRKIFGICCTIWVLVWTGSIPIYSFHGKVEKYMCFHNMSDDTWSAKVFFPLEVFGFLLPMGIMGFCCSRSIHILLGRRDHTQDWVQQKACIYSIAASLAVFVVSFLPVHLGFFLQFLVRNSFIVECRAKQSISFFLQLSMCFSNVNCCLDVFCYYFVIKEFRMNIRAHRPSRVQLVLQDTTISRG

INS1 = assay: INS-1E survival protection against cytokine death – cell-based, luminescence, retest, dose response (AID 449756); type: functional; details: Rattus norvegicus;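 note: cell death triggered by IL-1 beta plus TNF-alpha plus IFN-gamma mixture; protective hits raise ATP signal compared with cytokine alone wells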
[10] = IC50 of Artemis nuclease activity blockers – biochemical, fluorescence intensity, dose response (AID 720701); type: functional;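 note: Artemis endonuclease enzyme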
[11] = molecular target: T3, Runt-related transcription factor 1/Core-binding factor subunit beta (Homo sapiens, UniProt Q01196+Q13951); assay: disruptors of Runt domain/CBFb-SMMHC interaction – biochemical, FRET, Cerulean-Runt, Venus-CBFb-SMMHC, uHTS, […] (AID 1434); type: protein assay
T3 sequence (Q01196 whole entry, the tested form may be a part): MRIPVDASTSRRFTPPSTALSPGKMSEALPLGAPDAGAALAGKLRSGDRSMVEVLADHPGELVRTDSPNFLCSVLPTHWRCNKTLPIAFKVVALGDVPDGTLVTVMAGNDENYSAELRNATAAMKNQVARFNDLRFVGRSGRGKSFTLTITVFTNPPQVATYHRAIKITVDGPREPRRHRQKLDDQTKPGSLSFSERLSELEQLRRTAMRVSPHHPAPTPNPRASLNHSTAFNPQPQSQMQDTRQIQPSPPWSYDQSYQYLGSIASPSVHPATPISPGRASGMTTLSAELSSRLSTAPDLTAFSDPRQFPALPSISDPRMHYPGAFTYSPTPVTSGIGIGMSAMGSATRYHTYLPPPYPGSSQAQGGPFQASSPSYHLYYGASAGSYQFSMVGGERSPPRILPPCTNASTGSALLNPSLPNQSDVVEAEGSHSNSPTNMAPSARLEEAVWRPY
T3 sequence (Q13951 whole entry, the tested form may be a part): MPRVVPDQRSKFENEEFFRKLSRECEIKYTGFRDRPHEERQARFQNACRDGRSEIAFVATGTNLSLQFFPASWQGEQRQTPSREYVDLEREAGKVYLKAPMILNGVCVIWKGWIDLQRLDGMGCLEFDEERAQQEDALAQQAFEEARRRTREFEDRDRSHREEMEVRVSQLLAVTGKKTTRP

[12] = molecular target: T3, Runt-related transcription factor 1/Core-binding factor subunit beta; assay: Runt domain/CBFb-SMMHC interaction disruptors – biochemical, TR-FRET (AID 1438); type: protein assay
Trypsin = Trypsin (Sus scrofa, UniProt P00761); assay: trypsin protease activity blockade – biochemical, quenched peptide fluorescence, cherry-pick, selectivity assay for Rce1 protease inhibitor project, dose response (AID 488789)
Sequence of Trypsin (P00761 whole entry): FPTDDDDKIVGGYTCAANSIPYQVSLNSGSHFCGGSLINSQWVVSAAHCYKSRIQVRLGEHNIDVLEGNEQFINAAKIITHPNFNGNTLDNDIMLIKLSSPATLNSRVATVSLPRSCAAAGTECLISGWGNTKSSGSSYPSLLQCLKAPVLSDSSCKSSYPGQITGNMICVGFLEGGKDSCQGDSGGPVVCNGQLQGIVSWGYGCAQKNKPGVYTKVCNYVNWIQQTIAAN

CAAX prenyl protease 2 [13] = molecular target: CAAX prenyl protease 2 (Saccharomyces cerevisiae S288c, UniProt Q03530); type: biochemical
Sequence of CAAX prenyl protease 2 (Saccharomyces cerevisiae S288c, UniProt Q03530) (Q03530 whole entry): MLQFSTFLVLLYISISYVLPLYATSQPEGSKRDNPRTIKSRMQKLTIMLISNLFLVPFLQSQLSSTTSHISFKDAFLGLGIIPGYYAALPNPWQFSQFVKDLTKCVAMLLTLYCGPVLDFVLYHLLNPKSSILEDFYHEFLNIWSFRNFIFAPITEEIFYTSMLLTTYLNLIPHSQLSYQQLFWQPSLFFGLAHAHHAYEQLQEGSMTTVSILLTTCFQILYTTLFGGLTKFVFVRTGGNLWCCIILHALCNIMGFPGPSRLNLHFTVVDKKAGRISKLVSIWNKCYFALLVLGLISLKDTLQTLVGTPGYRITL

CAAX prenyl protease 2 [14] = molecular target: T4, CAAX prenyl protease 2 (Homo sapiens, UniProt Q9Y256); assay: inhibition of Ras-converting CAAX protease Rce1 – biochemical, yeast membranes, quenched-peptide fluorescence, cherry-pick, dose response (AID 588849)
T4 sequence (Q9Y256 whole entry): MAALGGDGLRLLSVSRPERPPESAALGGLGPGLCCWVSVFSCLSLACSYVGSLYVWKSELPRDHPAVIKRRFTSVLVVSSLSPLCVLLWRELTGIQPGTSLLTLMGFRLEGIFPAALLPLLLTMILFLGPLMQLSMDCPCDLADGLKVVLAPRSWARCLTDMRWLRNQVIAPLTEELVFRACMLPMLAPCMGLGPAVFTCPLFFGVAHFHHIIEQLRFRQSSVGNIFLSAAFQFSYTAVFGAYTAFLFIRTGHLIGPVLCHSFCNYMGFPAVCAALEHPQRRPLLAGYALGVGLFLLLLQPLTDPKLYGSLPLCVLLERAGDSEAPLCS

[15] = viability loss in HeLa cells – cytotoxicity control for MgcRacGAP inhibitor project, dose response (AID 624300); type: functional
[16] = molecular target: T5, Rac GTPase-activating protein 1 (Homo sapiens, UniProt Q9H0H5); assay: blockers of MgcRacGAP-driven Rac1 GTP hydrolysis – biochemical, ADP Hunter fluorescence, primary and confirmatory, confirmation (AID 624330); type: functional
T5 sequence (Q9H0H5 whole entry): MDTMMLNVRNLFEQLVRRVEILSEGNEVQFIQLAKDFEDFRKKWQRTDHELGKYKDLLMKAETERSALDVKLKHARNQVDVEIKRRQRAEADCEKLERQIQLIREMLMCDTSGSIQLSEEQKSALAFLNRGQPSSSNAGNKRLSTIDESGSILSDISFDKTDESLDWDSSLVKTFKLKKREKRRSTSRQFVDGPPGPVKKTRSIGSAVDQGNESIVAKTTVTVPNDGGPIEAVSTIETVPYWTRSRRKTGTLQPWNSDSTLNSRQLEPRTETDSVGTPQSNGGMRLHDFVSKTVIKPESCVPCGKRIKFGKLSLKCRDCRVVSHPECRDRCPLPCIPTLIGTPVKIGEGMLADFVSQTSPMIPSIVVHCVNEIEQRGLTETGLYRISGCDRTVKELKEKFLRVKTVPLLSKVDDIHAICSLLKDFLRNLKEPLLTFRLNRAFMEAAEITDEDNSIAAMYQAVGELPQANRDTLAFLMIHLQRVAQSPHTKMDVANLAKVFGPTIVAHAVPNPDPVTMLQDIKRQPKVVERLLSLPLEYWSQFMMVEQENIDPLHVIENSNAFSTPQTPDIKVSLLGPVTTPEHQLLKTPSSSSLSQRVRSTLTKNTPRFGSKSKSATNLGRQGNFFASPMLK

[17] = molecular target: E3 ubiquitin-protein ligase Mdm2/Protein Mdm4 (Homo sapiens, UniProt O15151+Q00987); assay: disruption of Mdm2/MdmX protein binding – luminescence detection, dose response (AID 504593); type: functional
Sequence of E3 ubiquitin-protein ligase Mdm2/Protein Mdm4 (Q00987 whole entry): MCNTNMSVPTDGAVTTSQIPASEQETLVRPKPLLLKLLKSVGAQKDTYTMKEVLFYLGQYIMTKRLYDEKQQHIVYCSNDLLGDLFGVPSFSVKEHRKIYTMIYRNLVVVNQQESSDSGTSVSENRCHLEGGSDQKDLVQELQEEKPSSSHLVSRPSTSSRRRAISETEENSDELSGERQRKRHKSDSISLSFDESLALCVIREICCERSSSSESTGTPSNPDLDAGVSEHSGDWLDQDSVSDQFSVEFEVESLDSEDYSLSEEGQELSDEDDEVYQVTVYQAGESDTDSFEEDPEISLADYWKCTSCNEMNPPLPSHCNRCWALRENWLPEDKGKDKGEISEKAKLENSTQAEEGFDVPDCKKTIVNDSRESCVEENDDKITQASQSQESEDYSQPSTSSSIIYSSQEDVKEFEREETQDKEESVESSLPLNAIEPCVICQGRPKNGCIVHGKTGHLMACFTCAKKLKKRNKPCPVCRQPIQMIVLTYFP
Sequence of E3 ubiquitin-protein ligase Mdm2/Protein Mdm4 (O15151 whole entry): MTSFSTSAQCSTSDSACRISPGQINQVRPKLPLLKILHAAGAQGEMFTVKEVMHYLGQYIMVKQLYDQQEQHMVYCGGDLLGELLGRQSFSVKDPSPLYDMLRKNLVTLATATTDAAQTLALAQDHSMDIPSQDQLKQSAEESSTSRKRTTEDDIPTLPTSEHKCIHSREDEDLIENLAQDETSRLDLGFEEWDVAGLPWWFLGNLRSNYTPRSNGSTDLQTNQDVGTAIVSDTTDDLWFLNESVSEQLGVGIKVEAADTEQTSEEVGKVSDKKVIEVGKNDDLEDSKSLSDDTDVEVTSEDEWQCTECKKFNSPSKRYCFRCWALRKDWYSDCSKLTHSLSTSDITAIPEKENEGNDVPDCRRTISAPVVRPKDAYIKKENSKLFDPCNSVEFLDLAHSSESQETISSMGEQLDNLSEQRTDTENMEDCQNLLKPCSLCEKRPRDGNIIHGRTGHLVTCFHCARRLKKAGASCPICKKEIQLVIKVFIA

Sequence of Envelope glycoprotein gp160 (Q6QLK5 whole entry, the tested form may be a part): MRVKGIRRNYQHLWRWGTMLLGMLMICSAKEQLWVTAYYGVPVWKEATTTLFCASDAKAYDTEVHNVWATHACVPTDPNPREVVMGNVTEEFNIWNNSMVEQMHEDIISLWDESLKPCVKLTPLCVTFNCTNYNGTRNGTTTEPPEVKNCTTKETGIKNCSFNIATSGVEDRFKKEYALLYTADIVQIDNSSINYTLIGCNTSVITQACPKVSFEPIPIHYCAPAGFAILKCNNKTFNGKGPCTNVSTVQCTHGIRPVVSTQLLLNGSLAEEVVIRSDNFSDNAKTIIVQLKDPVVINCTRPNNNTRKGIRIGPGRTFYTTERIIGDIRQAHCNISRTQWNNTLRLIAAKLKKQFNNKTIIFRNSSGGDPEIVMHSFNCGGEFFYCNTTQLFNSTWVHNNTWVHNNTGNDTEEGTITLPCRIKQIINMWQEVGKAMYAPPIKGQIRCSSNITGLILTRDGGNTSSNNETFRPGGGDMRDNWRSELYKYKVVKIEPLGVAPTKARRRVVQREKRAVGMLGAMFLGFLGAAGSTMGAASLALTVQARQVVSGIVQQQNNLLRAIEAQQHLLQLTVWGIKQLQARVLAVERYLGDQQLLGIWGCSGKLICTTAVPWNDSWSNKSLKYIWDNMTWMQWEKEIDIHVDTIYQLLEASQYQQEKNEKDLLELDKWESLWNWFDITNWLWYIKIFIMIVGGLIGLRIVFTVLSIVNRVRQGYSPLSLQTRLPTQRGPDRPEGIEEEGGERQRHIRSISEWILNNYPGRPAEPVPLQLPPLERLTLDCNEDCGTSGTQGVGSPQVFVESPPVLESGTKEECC

Q: With `COC1C(OC(=O)c2ccc(C)[nH]2)C(O)C(Oc2ccc3c(O)c(NC(=O)c4ccc(O)c(CC=C(C)C)c4)c(=O)oc3c2Cl)OC1(C)C` (stereo not drawn) as the molecule, how does the IC50 [1] read?
A: Its IC50 is 13 µM (active).

Q: And the IC50 [2]?
A: The IC50 was 38.4 µM (active).

Q: And the IC50 [3]?
A: Its IC50 is 2.1 µM (active).

Q: And the IC50 [4]?
A: Its IC50 is 7.01 µM (active).

Q: And the IC50 (ELAV-like protein 1)?
A: Its IC50 is 41.9 µM (active).

Q: What does the source list for `Cc1cc(/C=N/n2cnnc2)c(C)n1-c1ccc(OCc2ccc(Cl)cc2Cl)cc1`?
A: EC50 [5]: 2.46 µM (active); EC50 [6]: 0.28 µM (active); IC50 [7]: > 100 µM (not active); EC50 (Streptokinase A): > 150 µM (not active); CC50 [8]: 14.1 µM (active); EC50 (HT-1080): > 50 µM (not active); EC50 (Streptococcus): 4.73 µM (active); EC50 [9]: 1.35 µM (active); AC50 (INS1): 1.6 µM (active); IC50 [10]: 5.84 µM (active)

Q: Which results are given for `Cc1cc(C)n2nc3nc4c(cc3c2n1)CCCC4`?
A: IC50 [11]: 36.8 µM (active); IC50 [12]: > 100 µM (inactive)

Q: For `COc1cc(-c2nc3ccccn3c2NCC2CCCO2)ccc1O` (stereo not drawn), which AC50 (Trypsin) is on record?
A: Its AC50 is 12.8 µM (active).

Q: What about the AC50 (CAAX prenyl protease 2 [13]) of the same molecule?
A: Its AC50 is 23.4 µM (active).

Q: And the AC50 (CAAX prenyl protease 2 [14])?
A: Its AC50 is 6.82 µM (active).

Q: What about the CC50 [15] of the same molecule?
A: Its CC50 is 100 µM (active).

Q: What about the IC50 [16] of the same molecule?
A: Its IC50 is 49.9 µM (active).

Q: For `COc1cc(-c2nc(-c3ccc(NC(=O)c4ccc5c(c4)OCO5)cc3)no2)cc(OC)c1OC`, which IC50 [17] is on record?
A: The IC50 was 3.91 µM (active).
